# Like-named read-outs stand apart in the source and are kept apart here.
# How the values were obtained:
# in vivo [1] = details: female, 8HUM, mouse
# CYP = details: cited from earlier work
# M. tuberculosis H37Rv [2] = test: Acute M. tuberculosis infection efficacy model in WT mice (lung CFU); assay type: in vivo, Mycobacterium tuberculosis; details: efavirenz co-administration
# M. tuberculosis H37Rv [3] = test: Acute M. tuberculosis infection efficacy model in 8HUM (lung CFU); assay type: in vivo, Mycobacterium tuberculosis
# in vivo [4] = details: female, C57BL/6J, mouse
# [5] = human, in vivo; cited from earlier work
# CYP3A4 = test: Hepatic CYP3A4 induction in 8HUM (Western blot); assay type: in vivo, mouse; details: efavirenz 20 and 40 mg/kg QD
# Protocol: Microsomal samples were adjusted to 1 mg/mL in LDS sample buffer (Life Technologies) for loading of 10 µg total protein into each well and electrophoresis through 10% acrylamide gels for 1 h at 150 V, followed by transfer onto nitrocellulose membranes. Primary antibodies used for immunoblotting were anti-CYP3A4 (458234, BD Biosciences) and anti-GRP78 loading control (ab21685, Abcam). Pooled HLM material was the same as used in microsomal incubations. Loading control is not provided for Fig. 1B, as the comparison is between human and murine samples.
# (§1) Mouse hepatic microsomes were prepared by homogenization of freshly-isolated liver in ice-cold SET buffer (0.25 M sucrose, 5 mM EDTA, and 20 mM Tris-HCL, pH 7.4) to make a 10% (w/v) homogenate solution (9 ml SET buffer/1 g liver) using a Polytron PT-MR-2100 homogenizer. Liver homogenates were centrifuged at 2000 rpm (Sorvall RTH-250 rotor) for 10 minutes at 4 °C and the supernatant then centrifuged at 12000 rpm (Sorvall SS-34 rotor) for 20 minutes at 4 °C. The resulting supernatant was centrifuged at 29130 rpm (Sorvall TFT-45.6 rotor) for 90 minutes at 4 °C and the microsomal pellets were resuspended in ice-cold SET buffer for storage at –70 °C.
# (§2) Primary hepatocytes were freshly prepared from 8HUM using a modified version of Charni-Natan and Goldstein’s STAR Protocol(1). Following termination by cervical dislocation and femoral vessel cut […]
# [6] = microsomes
# M. tuberculosis = details: cited from earlier work
# [7] = mouse, in vivo
# [8] = mouse, microsomes
# [9] = human, 30 min, 5 µM, pH 7.4
# [10] = DDI: pretomanid PK after CYP3A4 inducer pre-treatment in WT mice; assay type: in vivo, mouse
# Protocol: (§3) With the exception of quinidine PK, female mice were used in all experiments. Dose levels and schedules were as detailed in SI Appendix. Serial blood samples (10 µL) were taken from the tail vein at the timepoints shown, diluted into 9 volumes of Milli-Q water, and stored at −20 °C prior to bioanalysis. Samples from mice infected with T. cruzi were snap-frozen in liquid nitrogen and thawed three times before storage at −20 °C until bioanalysis. Samples from mice infected with M. tuberculosis (15 µL) were mixed with two volumes of Milli-Q and stored at −70 °C until bioanalysis. All non-compartmental analysis, modeling, and simulation of PK was carried out using Phoenix WinNonlin version 8.3.1.5014 (Certara), as described in SI Appendix.
# as §1, §2
# (§4) canula (Merck) and the liver perfused using 30 mL Hanks Buffered Saline Solution (HBSS, -Ca 2+ -Mg2+, no phenol red, Gibco), containing 0.5 mM EDTA and 25 mM HEPES, running at a flow rate of 3 mL/min at approximately 37 °C. Subsequently, 10 mL HBSS digestion buffer (Ca2+ & Mg2+, no phenol red, Gibco), including 25 mM HEPES and 270 µL liberase (Merck) running at a flow rate of 3 mL/min and ~37 °C was then perfused. The final perfusion step utilised 30 mL HBSS digestion buffer containing 25 mM HEPES and 20 mg collagenase (Merck) at approximately 37 °C. The liver was excised, gall bladder removed and placed in a 10 cm petri dish where it was covered with 10 mL plating medium WME containing CM4000. The liver capsule was gently agitated with a glass rod and forceps to disperse the liver cells. Cells were then poured through a 100 µm nylon strainer (Falcon, Corning, NY, USA) into a 50 mL collection tube and topped up to 50 mL with plating medium at 37 °C. All solutions were perfused using a Miniplus peristaltic pump (Gilson, Middleton, WI, USA) and run through a 20 mL Intrafix Safeset bubble trap (Braun, Melsungen, Germany) to prevent potential blocking of vessels during perfusion. […]
# [11] = Oral pharmacokinetics in WT mice; details: female, mouse, whole blood
# [12] = DDI: pretomanid PK after CYP3A4 inducer pre-treatment in 8HUM; assay type: in vivo, mouse (8HUM)
# Protocol: as §3, §1, §2, §4
# [13] = Oral pharmacokinetics in 8HUM mice; details: female, mouse, whole blood
# [14] = mouse, microsomes; remark: listed apart in the source
# [15] = human, in vivo; cited from earlier work; remark: listed apart in the source
# [16] = mouse, hepatocytes
# in vivo [17] = details: female, mouse, po
# [18] = hepatocytes
# [19] = mouse, microsomes; remark: listed apart in the source
# [20] = mouse, hepatocytes; remark: listed apart in the source
# in vivo [21] = details: female, 8HUM, mouse, po
# [22] = WT pre-treated with efavirenz (40 mg/kg once daily for three days)
# [23] = WT pre-treated with rifampicin (2 mg/kg once, 24 hr prior)
# [24] = 8HUM pre-treated with efavirenz (40 mg/kg once daily for three days)
# [25] = 8HUM pre-treated with rifampicin (2 mg/kg once, 24 hr prior)
structure (smiles),measurement,setting,value
COc1nc2ccc(Br)cc2cc1[C@@H](c1ccccc1)[C@@](O)(CCN(C)C)c1cccc2ccccc12 [Bedaquiline],AUC(0-t),in vivo [1],19100 ng·h/mL
same,CYP interaction: Substrate,CYP,3A4
same,decrease in efficacy of bedaquiline with efavirenz,M. tuberculosis H37Rv [2],1.3 log CFU
same,impact of efavirenz on efficacy of bedaquiline,"M. tuberculosis H37Rv [3]; 8HUM, efavirenz co-administration",no impact
same,AUC(0-t),in vivo [4],2930 ng·h/mL
same,terminal half-life,[5],5.5 mo
O=C1Nc2ccc(Cl)cc2[C@@](C#CC2CC2)(C(F)(F)F)O1 [Efavirenz],induction of hepatic CYP3A4,CYP3A4,approximately threefold
same,"CLint, Human",[6],0.5 mL/min/g liver
same,CYP interaction: Inducer,CYP,3A4
same,CYP interaction: Substrate,CYP,2B6
"CNCC[C@@](O)(c1cccc2ccccc12)[C@H](c1ccccc1)c1cc2cc(Br)ccc2nc1OC [NDM-bedaquiline, N-desmethyl bedaquiline]",potency of metabolite relative to parent compound,M. tuberculosis,approximately fivefold less potent
same,impact of efavirenz on PK,[7],little impact
Cc1c(O)cccc1C(=O)N[C@@H](CSc1ccccc1)[C@H](O)CN1C[C@H]2CCCC[C@H]2C[C@H]1C(=O)NC(C)(C)C [Nelfinavir],"CLint, WT",[8],50 mL/min/g liver
same,"CLint, Human",[6],50 mL/min/g liver
same,CYP interaction: Inhibitor,CYP,3A4
same,metabolites detected,[9],18
O=[N+]([O-])c1cn2c(n1)OC[C@@H](OCc1ccc(OC(F)(F)F)cc1)C2 [Pretomanid],decrease in AUC of pretomanid,[10]; [22],65%
same,decrease in Cmax of pretomanid,[10]; [22],31%
same,decrease in AUC of pretomanid,[10]; [23],10%
same,decrease in Cmax of pretomanid,[10]; [23],6%
same,"CLint, WT",[8],0.5 mL/min/g liver
same,CL/F,[11],4.43 mL/min/kg
same,decrease in AUC of pretomanid,[12]; [24],54%
same,decrease in Cmax of pretomanid,[12]; [24],14%
same,decrease in AUC of pretomanid,[12]; [25],51%
same,decrease in Cmax of pretomanid,[12]; [25],25%
same,minimum inhibitory concentration,M. tuberculosis,0.06 µg/mL
same,"CLint, Human",[6],0.5 mL/min/g liver
same,CYP interaction: Substrate,CYP,3A4
same,CL/F,[13],2.17 mL/min/kg
same,efficacy in 8HUM compared with WT (lung CFU),"M. tuberculosis H37Rv [3]; M. tuberculosis infection, once a day for 8 days",less effective in 8HUM
same,"CLint, 8HUM",[14],0.5 mL/min/g liver
same,decrease in AUC of pretomanid,[15],35%
same,decrease in Cmax of pretomanid,[15],28%
CO[C@H]1/C=C/O[C@@]2(C)Oc3c(C)c(O)c4c(c3C2=O)C2=NC3(CCN(CC(C)C)CC3)NC2=C(NC(=O)/C(C)=C\C=C\[C@H](C)[C@H](O)[C@@H](C)[C@@H](O)[C@@H](C)[C@H](OC(C)=O)[C@@H]1C)C4=O [Rifabutin],"CLint, 8HUM",[16],0.7 mL/min/g liver
same,CL/F,in vivo [17],24.8 mL/min/kg
same,"CLint, Human",[18],1 mL/min/g liver
same,"CLint, Human",[6],1.1 mL/min/g liver
same,CYP interaction: Substrate,CYP,3A4
same,"CLint, CypC4KO",[19],0.5 mL/min/g liver
same,"CLint, WT",[20],0.5 mL/min/g liver
same,CL/F,in vivo [21],4.03 mL/min/kg
